Test results: patent publication US20170042924A1, “MUSCLE ATROPHY INHIBITOR CONTAINING QUERCETIN GLYCOSIDE” (SUNTORY HOLDINGS LIMITED, priority 2014, published 2017)

Tests used:
BALB/c male mice = test: Dexamethasone-induced muscle atrophy, forced oral administration test, gastrocnemius weight/body weight ratio; type: in vivo; conditions: 200 mg/kg QG or equivalent amount of quercetin in terms of rutin, with DEX 10 mg/L in drinking water, compared to the DEX group, FIG. 3
Method: BALB/c male mice aged 7 weeks were habituated for one week, and then allowed to ingest 10 mg/L dexamethasone (DEX) in drinking water ad libitum. Next, 200 mg/kg quercetin glycoside (QG) and an equivalent amount of quercetin (Q) in terms of rutin were each suspended in milliQ water containing 0.5% carboxymethyl cellulose sodium salt, and the suspensions were each forcibly administered orally […] to the mice for five days (from Monday to Friday). Then, administration of 10 mg/L DEX in drinking water was started from Friday. In the next week, forced oral QG/Q administration was resumed (from Monday to Thursday) concurrently with DEX administration in drinking water, and the mice were dissected on Friday. Sample collection after the administration test, muscle atrophy evaluation based on gastrocnemius weight (GW)/body weight (BW) ratio, and gene expression level analysis in gastrocnemius tissue were performed according to the procedures described in Examples 1 and 2. The differences in average gene expression levels between the DEX group and each of the DEX+QG group and the DEX+Q group were analyzed by Dunnett's test, with p-values below 5% being considered significant.

MuRF-1 = MuRF-1 expression in gastrocnemius tissue, forced oral administration test; type: in vivo, mice; conditions: 200 mg/kg QG or equivalent amount of quercetin, with DEX 10 mg/L in drinking water, compared to the DEX group, FIG. 4
Method: (§1) Thereafter, for the purpose of a detailed analysis of the molecular mechanisms, the expression of genes involved in muscle atrophy in gastrocnemius tissue was analyzed. RNA was extracted from the cryopreserved gastrocnemius samples using ISOGEN (Nippon Gene Co., Ltd.) and the RNeazy Mini Kit (Qiagen). Then, cDNA synthesis was conducted using the High-Capacity cDNA Reverse Transcriptional Kits (Applied biosystems). Based on the constructed cDNAs, the messenger RNA (mRNA) levels of the muscle atrophy-related genes (Atrogin-1, MuRF-1, Foxo1, Redd1, and Mstn) and the control gene (18SrRNA) were determined by quantitative reverse transcription PCR using the TaqMan Fast Universal PCR Master Mix (Applied biosystems). The values obtained were expressed as mean±standard deviation. The differences in average gene expression levels between the DEX group and each of the DEX+QG groups were analyzed by Student's t-test, with p-values below 5% being considered significant. BALB/c male mice aged 7 weeks were habituated for one week, and then allowed to ingest 10 mg/L dexamethasone (DEX) in drinking water ad libitum. […] The differences in average gene expression levels between the DEX group and each of the DEX+QG group and the DEX+Q group were analyzed by Dunnett's test, with p-values below 5% being considered significant.

Foxo1 = Foxo1 expression in gastrocnemius tissue, forced oral administration test; type: in vivo, mice; conditions: 200 mg/kg QG or equivalent amount of quercetin, with DEX 10 mg/L in drinking water, compared to the DEX group, FIG. 4
Method: as §1

Redd1 = Redd1 expression in gastrocnemius tissue, forced oral administration test; type: in vivo, mice; conditions: 200 mg/kg QG or equivalent amount of quercetin, with DEX 10 mg/L in drinking water, compared to the DEX group, FIG. 4
Method: as §1

O=c1c(O)c(-c2ccc(O)c(O)c2)oc2cc(O)cc(O)c12 [quercetin]
GW/BW ratio (gastrocnemius weight divided by body weight) (BALB/c male mice): not effective in improving the GW/BW ratio
expression of MuRF-1 increased by DEX administration (MuRF-1): not effective in inhibiting the expression
expression of Foxo1 increased by DEX administration (Foxo1): not effective in inhibiting the expression
expression of Redd1 increased by DEX administration (Redd1): not effective in inhibiting the expression
